The values that follow come from ChEMBL document CHEMBL1139716, “Naphtho[2,3-b][1,4]-thiazine-5,10-diones and 3-substituted-1,4-dioxo-1,4-dihydronaphthalen-2-yl-thioalkanoate derivatives: synthesis and biological evaluation as potential antibacterial and antifungal agents” (Bioorg Med Chem Lett, 2006).

≈ marks a conversion by molar mass, not a printed value.

The test system of one assay is Staphylococcus aureus. Kind of assay: Antibacterial activity against Staphylococcus aureus by broth microdilution technique. It counts as functional, organism-based. The note with it: Staphylococcus aureus; for IC50: read-out: IC50. In general terms: Dilution methods test growth across graded concentrations, often in twofold steps.
For another assay, the system named is Enterococcus faecalis. Nature of the assay: Antibacterial activity against Streptococcus faecalis by broth microdilution technique. The assay is classed as functional, organism-based. Particulars: Enterococcus faecalis; for IC50: read-out: IC50.
A further assay deals with Klebsiella pneumoniae. Kind of assay: Antibacterial activity against Klebsiella pneumoniae by broth microdilution technique. It counts as functional, organism-based. The note with it: Klebsiella pneumoniae; for IC50: read-out: IC50.
For a further assay, the system named is Escherichia coli. Nature of the assay: Antibacterial activity against Escherichia coli by broth microdilution technique. The assay is classed as functional, organism-based. Particulars: Escherichia coli; for IC50: read-out: IC50.
The next assay relates to Pseudomonas aeruginosa. Kind of assay: Antibacterial activity against Pseudomonas aeruginosa by broth microdilution technique. It counts as functional, organism-based. Particulars: Pseudomonas aeruginosa; for IC50: read-out: IC50.
Another assay concerns Candida albicans. Nature of the assay: Antifungal activity against Candida albicans by broth microdilution technique. The assay is classed as functional, organism-based.
For the next assay, the system named is Candida parapsilosis. Kind of assay: Antifungal activity against Candida parapsilosis ATCC 22019 by broth microdilution technique. The assay is classed as functional, organism-based. The note with it: Lodderomyces parapsilosis.
Another assay deals with Cryptococcus neoformans. Nature of the assay: Antifungal activity against Cryptococcus neoformans by broth microdilution technique. It counts as functional, organism-based.
Another assay deals with Aspergillus fumigatus. Nature of the assay: Antifungal activity against Aspergillus fumigatus by broth microdilution technique. It counts as functional, organism-based.
In the next assay the test system is Sporothrix schenckii. Kind of assay: Antifungal activity against Sporothrix schenckii by broth microdilution technique. It counts as functional, organism-based.
The test system of the next assay is Trichophyton benhamiae. Kind of assay: Antifungal activity against Trichophyton mentagrophytes by broth microdilution technique. It counts as functional, organism-based, Arthroderma benhamiae.

For orientation: MIC means the smallest concentration in the dilution series that meets the test's criterion for growth inhibition. High values mean weaker potency, low ones greater potency. In general, IC50 refers to the concentration that gives 50% inhibition.

On to `CCOC(=O)C(C)SC1=C(NC(C)(C)C)C(=O)c2ccccc2C1=O` (stereo not drawn), for which the minimal inhibitory concentration (MIC) in the assay with Staphylococcus aureus amounted to 6.25 µg/mL (≈ 17.3 µM); against Enterococcus faecalis, 6.25 µg/mL (≈ 17.3 µM); with Klebsiella pneumoniae, 6.25 µg/mL (≈ 17.3 µM); in the assay on Escherichia coli, 6.25 µg/mL (≈ 17.3 µM); against Pseudomonas aeruginosa it was 6.25 µg/mL (≈ 17.3 µM); with Candida albicans it was 50 µg/mL (≈ 138 µM). Further, the MIC came out at 25 µg/mL (≈ 69.2 µM) with Candida parapsilosis; 12.5 µg/mL (≈ 34.6 µM) in the assay on Cryptococcus neoformans; 25 µg/mL (≈ 69.2 µM) against Aspergillus fumigatus; 12.5 µg/mL (≈ 34.6 µM) in the assay on Sporothrix schenckii; 3.12 µg/mL (≈ 8.63 µM) with Trichophyton benhamiae. The IC50 was 3.98 µg/mL (≈ 11 µM) in the assay on Staphylococcus aureus; 5.62 µg/mL (≈ 15.5 µM) in the assay on Enterococcus faecalis; 4.82 µg/mL (≈ 13.3 µM) in the assay with Klebsiella pneumoniae; 4.38 µg/mL (≈ 12.1 µM) in the assay on Escherichia coli; 5.32 µg/mL (≈ 14.7 µM) in the assay on Pseudomonas aeruginosa; 38.3 µg/mL (≈ 106 µM) with Candida albicans. Further, the IC50 was 22.2 µg/mL (≈ 61.4 µM) with Candida parapsilosis; 10.3 µg/mL (≈ 28.5 µM) in the assay with Cryptococcus neoformans; 21.8 µg/mL (≈ 60.4 µM) in the assay with Aspergillus fumigatus; 10.9 µg/mL (≈ 30.2 µM) in the assay with Sporothrix schenckii; 2.8 µg/mL (≈ 7.75 µM) in the assay on Trichophyton benhamiae.
Turning to `CCOC(=O)CSC1=C(Cl)C(=O)c2ccccc2C1=O`, the minimum inhibitory concentration (MIC) with Staphylococcus aureus was 12.5 µg/mL (≈ 40.2 µM); with Enterococcus faecalis it was 12.5 µg/mL (≈ 40.2 µM); with Klebsiella pneumoniae, 50 µg/mL (≈ 161 µM); against Escherichia coli, 12.5 µg/mL (≈ 40.2 µM); in the assay with Pseudomonas aeruginosa, 50 µg/mL (≈ 161 µM); against Candida albicans, > 50 µg/mL. Also, the MIC against Candida parapsilosis was > 50 µg/mL; against Cryptococcus neoformans, 12.5 µg/mL (≈ 40.2 µM); with Aspergillus fumigatus, > 50 µg/mL; with Sporothrix schenckii it was 25 µg/mL (≈ 80.4 µM); against Trichophyton benhamiae it was > 50 µg/mL. In addition, the IC50 in the assay with Staphylococcus aureus is 6.98 µg/mL (≈ 22.5 µM); in the assay with Enterococcus faecalis, 9.24 µg/mL (≈ 29.7 µM); in the assay with Klebsiella pneumoniae it was 33.2 µg/mL (≈ 107 µM); in the assay with Escherichia coli, 8.56 µg/mL (≈ 27.5 µM); in the assay with Pseudomonas aeruginosa, 44.4 µg/mL (≈ 143 µM); in the assay on Candida albicans, > 50 µg/mL. Moreover, the IC50 in the assay on Candida parapsilosis was > 50 µg/mL; with Cryptococcus neoformans, 10.9 µg/mL (≈ 35.2 µM); in the assay on Aspergillus fumigatus, > 50 µg/mL; with Sporothrix schenckii, 18.7 µg/mL (≈ 60.3 µM); in the assay with Trichophyton benhamiae it was > 50 µg/mL.
For the compound `CCOC(=O)C(C)SC1=C(NCCc2ccc(OC)c(OC)c2)C(=O)c2ccccc2C1=O` (stereo not drawn), the minimum inhibitory concentration (MIC) was 12.5 µg/mL (≈ 26.6 µM) in the assay with Staphylococcus aureus; > 50 µg/mL against Enterococcus faecalis; 50 µg/mL (≈ 106 µM) in the assay on Klebsiella pneumoniae; 50 µg/mL (≈ 106 µM) in the assay with Escherichia coli; 50 µg/mL (≈ 106 µM) against Pseudomonas aeruginosa; > 50 µg/mL with Candida albicans. The minimal inhibitory concentration (MIC) against Candida parapsilosis is > 50 µg/mL; in the assay on Cryptococcus neoformans it was > 50 µg/mL; against Aspergillus fumigatus, > 50 µg/mL; against Sporothrix schenckii, > 50 µg/mL; in the assay with Trichophyton benhamiae, 25 µg/mL (≈ 53.2 µM). The IC50 with Staphylococcus aureus is 9.52 µg/mL (≈ 20.3 µM); with Enterococcus faecalis it was > 50 µg/mL; with Klebsiella pneumoniae it was 42.5 µg/mL (≈ 90.6 µM); in the assay on Escherichia coli, 44.3 µg/mL (≈ 94.3 µM); in the assay on Pseudomonas aeruginosa it was 46.2 µg/mL (≈ 98.5 µM); with Candida albicans, > 50 µg/mL. In addition, the half-inhibitory concentration (IC50) is > 50 µg/mL in the assay with Candida parapsilosis; > 50 µg/mL with Cryptococcus neoformans; > 50 µg/mL in the assay on Aspergillus fumigatus; > 50 µg/mL with Sporothrix schenckii; 14 µg/mL (≈ 29.8 µM) with Trichophyton benhamiae.
As for `CCOC(=O)CSC1=C(NC(C)C)C(=O)c2ccccc2C1=O`, the minimum inhibitory concentration (MIC) in the assay on Staphylococcus aureus stood at 12.5 µg/mL (≈ 37.5 µM); in the assay with Enterococcus faecalis, 25 µg/mL (≈ 75 µM); against Klebsiella pneumoniae it was 50 µg/mL (≈ 150 µM); with Escherichia coli, 25 µg/mL (≈ 75 µM); in the assay with Pseudomonas aeruginosa, 50 µg/mL (≈ 150 µM); in the assay with Candida albicans it was 50 µg/mL (≈ 150 µM). The MIC amounted to 25 µg/mL (≈ 75 µM) in the assay on Candida parapsilosis; 12.5 µg/mL (≈ 37.5 µM) against Cryptococcus neoformans; 50 µg/mL (≈ 150 µM) with Aspergillus fumigatus; 50 µg/mL (≈ 150 µM) against Sporothrix schenckii; 12.5 µg/mL (≈ 37.5 µM) against Trichophyton benhamiae. Also, the half-inhibitory concentration (IC50) in the assay on Staphylococcus aureus turned out to be 18.5 µg/mL (≈ 55.4 µM); in the assay on Enterococcus faecalis, 20.6 µg/mL (≈ 61.9 µM); with Klebsiella pneumoniae, 46.9 µg/mL (≈ 141 µM); with Escherichia coli, 25 µg/mL (≈ 74.9 µM); in the assay with Pseudomonas aeruginosa it was 35.9 µg/mL (≈ 108 µM); with Candida albicans, 44.3 µg/mL (≈ 133 µM). For the same compound, the IC50 was determined as 23.2 µg/mL (≈ 69.7 µM) with Candida parapsilosis; 11.3 µg/mL (≈ 33.8 µM) with Cryptococcus neoformans; 44.9 µg/mL (≈ 135 µM) in the assay on Aspergillus fumigatus; 38.6 µg/mL (≈ 116 µM) in the assay with Sporothrix schenckii; 9.8 µg/mL (≈ 29.4 µM) in the assay with Trichophyton benhamiae.
